From patent US20240130988A1, “Use of stilbene compounds in the preparation of anti-tumor drugs” (Guangzhou AnHao Pharmaceutical Technology CO., LTD., priority 2022, published 2024)
Marks after values point to notes of the source that are not given here.

Tests used:
[1] = test system: human lung cancer A549; assay: Human lung cancer A549 transplanted tumors in nude mice; assay type: in vivo, BALB/C nude mice; settings: A549, 400 mg/kg ig × 14; for inhibition in vivo at 400 mg/kg: Mus musculus, po, read-out: Tumor inhibitory rate %
Experimental: In this experiment, a human lung cancer A549 model transplanted into nude mice was selected to study the anti-tumor effect of test compounds. The mice were treated at a dosage of 400 mg/kg by gavage for 14 days, and the tumor inhibition rate against human lung cancer A549 was measured.
Preparation: The compound was prepared as the solution at the desired concentration with distilled water, prior to administration.
Animal strain: BALB/C nude mice (SPF grade), weight: 19-21 g, gender: male. Number of animals in each treatment group: 8; Number of animals in the control group: >12.
(§1) Lung cancer A549 tumor blocks with good growth were chosen and cut into uniform small pieces of 3 mm under sterile conditions, and then subcutaneously inoculated into the right armpit of each mouse with a cannula. These mice were divided into 9 groups, 8 mice for each treatment group, while more than 12 mice were included in the control group.
14 days after inoculation, the average volume of the tumor mass was about 100 mm^3. The animals were regrouped based on the size of the tumor, and the mice with tumors that were too large and too small were eliminated. For each group, the average volume of tumors was basically the same, and then the mice were treated with test compounds. The mice in the treatment groups were administered once a day by gavage for 14 successive days, at a dosage of 0.5 mL/20 g body weight; the mice in the control group were given the same volume of physiological saline. From the 14th day of inoculation, the long diameter a (mm) of the tumor, together with the perpendicular short diameter b (mm), was measured using a digital electronic caliper, twice a week. The calculation formula of tumor volume is: TV=ab^2/2, and the formula for calculating the relative tumor volume is RTV=Vt/Vo, wherein Vo denotes the tumor volume measured when the mice were divided into groups (i.e. d1), and Vt is the tumor volume from each measurement.
(§2) The result determination is based on the following formula: […]

[2] = test system: LLC (mouse lung cancer cells); assay: Enrichment of CD8+ cytotoxic T lymphocytes in tumor tissue, Lewis non-small cell lung cancer model of mice; assay type: in vivo; settings: 400 mg/kg ip once a day for 10 days, CD8+ immunohistochemistry
[3] = test system: human ovarian cancer A2780; assay: Human ovarian cancer A2780 transplanted tumor in nude mice; assay type: in vivo, BALB/C nude mice; settings: A2780, 200 mg/kg ip × 14
Experimental: A human ovarian cancer A2780 model transplanted into nude mice was used in the experiment to investigate the anti-tumor effect of test compounds.
Preparation: The compound was prepared as the injection at the desired concentration with sterile normal saline, prior to administration.
Animal strain: BALB/C nude mice (SPF grade), weight: 19-21 g, gender: male.
Number of animals in each treatment group: 8; number of animals in the control group: >12.
as §1, with “The” for “Lung cancer A549”, “of human ovarian cancer A2780 growing well” for “with good growth”, “were” for “were chosen and”, “The” for “These”, “>12” for “more than 12”
14 days after inoculation, the average volume of the tumor block was about 100 mm^3. The animals were regrouped based on the size of the tumor, and the animals with tumors that were too large and too small were sifted out. For each group, the average volume of tumors was basically the same, and then the mice were initially treated with test compounds. The mice were intraperitoneally injected once a day for 14 days, at a dosage of 0.2 mL/20 g body weight; the mice in the control group were given the same volume of sterile normal saline. From the 14th day of inoculation, the long diameter a (mm) of the tumor, together with the perpendicular short diameter b (mm), was measured using a digital electronic caliper, twice a week. The calculation formula of tumor volume is: TV=ab^2/2, and the formula for calculating the relative tumor volume is RTV=Vt/Vo, wherein Vo denotes the tumor volume measured when the mice were divided into groups (i.e. d1), and Vt is the tumor volume from each measurement.
as §2

[4] = test system: LLC (mouse lung cancer cells); assay: Enrichment of CD8+ cytotoxic T lymphocytes in tumor tissue, Lewis non-small cell lung cancer model of mice; assay type: in vivo; settings: 400 mg/kg ip once a day for 10 days; for The ratio of CD8^+ in total immune cells of tumor tissues (%): flow cytometry; for The ratio of distribution area in tumor tissues (%): CD8+ immunohistochemistry
Experimental: LLC (mouse lung cancer cells) were a mouse Lewis lung cancer cells.
The modeling method for LLC cell lung cancer in mice was as follows:
LLC cells were cultured in the general medium containing 10% fetal bovine serum and 100 μg/mL of double antibody (penicillin±streptomycin), and then cultivated in a 37° C., 5% CO2 cell incubator for routine incubation. LLC cells, that had grown to logarithmic phase, were digested with 0.25% trypsin (containing EDTA) to form a cell suspension, which was centrifuged at 1000 rpm/min for 3 min. The supernatant was discarded, and cell precipitates were collected, that were resuspended in culture medium without serum and double antibody. The cell suspension was further centrifuged to adjust the volume under the same conditions with the aid of cell counting, so as to prepare a cell suspension at a concentration of […] was injected into the right abdomen of each mouse, to complete the inoculation of tumor cells. The tumor was allowed to grew about 10 days, and the volume reached around 100 mm^3, before the mice were treated with test compounds.
Drug preparation: compounds 1-13 of the present invention were respective prepared into an injection with injection water.
Experimental methods: The model mice with LLC cell lung cancer were treated by intraperitoneal administration of 400 mg/kg injection containing the compound of the present invention. The model mice were divided into a negative control group (model mice only receiving equal volume of injection water by intraperitoneal administration) and treatment groups (model mice receiving the injection prepared with the compound of the present invention by intraperitoneal administration). The intraperitoneal injection regimen was carried out by injecting once a day at the pre-determined time. Before administration, the mice were weighed, and then treated with the injection at a dosage of 10 mL/kg, After successive administration for 10 days, that is, on the 10th day after receiving treatment, the mice were sacrificed, and the subcutaneous tumors were stripped to detect the ratio of cytotoxic T lymphocyte antigen CD8^+ in tumor tissues of the negative group and the treatment group by flow cytometry.
CD8^+ tumor-infiltrating lymphocytes in tumor tissues were detected by flow cytometry. The specific steps were as follows:
The mice were sacrificed, and then the abdominal epidermis of the mice was cut open using ophthalmic scissors, to fully expose the subcutaneous tumors. The subcutaneous tumor tissues on the right side of the mouse's abdomen were gradually peeled off with tweezers and ophthalmic scissors. After rinsing with PBS, the stripped tumor tissues were cut into about 1 mm using ophthalmic scissors, and then placed in 3 mL of PBS buffer containing 100 μg/mL of hyaluronidase. A centrifuge tube containing a dispersed liquid was placed in a water bath and kept at 37° C. for 20 min. A pipette was used to blow and shake the digestive tumor tissues every 5 minutes to fully digest. The dispersed liquid containing undigested tumor tissues was filtered through a 70 μm stainless steel cell screen, and the remaining undigested tumor tissues were ground using a push rod of 20 mL syringe on 70 μm cell screen and rinsed 5 times with 1 mL of PBS while grinding. The cell suspension passing the cell screen was transferred to a 15 mL centrifuge tube, and centrifuged at 4000 rpm for 3 min. Then, cell precipitates were collected, to which was added 2 mL of red cell lysis buffer, and rested for 10 min, followed by centrifuging at 4000 rpm for 3 min. After washing with PBS, the cells were resuspended by adding 2-3 mL of PBS.
An appropriate amount of cell suspension was used as the sample for flow cytometry, and after counting, the cell suspension was adjusted to have a concentration of 5×10^6/mL. 100 μL of cell suspension was added to a test tube with a pipettor. […]

Row | SMILES | RTV (d 22) [1] | inhibition in vivo at 400 mg/kg [1] [%] | The ratio of distribution area in tumor tissues (%) ([2]; 400 mg/kg) | RTV (d 18) [3] | Tumor inhibitory rate % [3] | The ratio of CD8^+ in total immune cells of tumor tissues (%) ([4]; 400 mg/kg) | The ratio of distribution area in tumor tissues (%) [4] [%] | The ratio of CD8^+ in total immune cells of tumor tissues (%) [4] [%] | Tumor inhibitory rate % [1] | The ratio of distribution area in tumor tissues (%) [2] [%] | Tumor inhibitory rate % ([3]; listed as compound 6)
1 | COc1ccc(/C=C(/C(=O)O)c2cc(OC)c(OC)c(OC)c2)c(O)c1O [Compound 1, (E)-3-(2,3-dihydroxy-4-methoxyphenyl)-2-(3,4,5-trimethoxylphenyl)acrylic acid] | 4.27 ± 0.48 | 63.6 | 6.265 ± 0.3673 | 5.63 ± 0.72 | 45.39^## % | 0.0605 ± 0.0124 |  |  |  |  | 
2 | COc1cc(/C=C(/C(=O)O)c2cc(OC)c(OC)c(OC)c2)cc(OC)c1 [Compound 3, (E)-3-(3,5-dimethoxyphenyl)-2-(3,4,5-trimethoxyphenyl)acrylic acid] | 4.52 ± 0.76 | 61.5 |  |  |  |  | 6.731 ± 0.5692 | 0.0762 ± 0.0103 |  |  | 
3 | COc1ccc(/C=C(/C(=O)O)c2cc(OC)c(OC)c(OC)c2)cc1F [Compound 4, (E)-3-(3-fluoro-4-methoxyphenyl)-2-(3,4,5-trimethoxyphenyl)acrylic acid] | 5.23 ± 1.43 | 55.5 |  | 4.51 ± 0.67 | 56.26^## % |  | 6.872 ± 0.7633 | 0.0787 ± 0.0122 |  |  | 
4 | COc1ccc(/C=C(/C(=O)O)c2cc(OC)c(OC)c(OC)c2)cc1O [Compound 6, (E)-3-(3-hydroxy-4-methoxyphenyl)-2-(3,4,5-trimethoxyphenyl)acrylic acid] | 2.51 ± 0.94 | 78.6 |  | 3.58 ± 0.49 | 65.28% |  |  | 0.0814 ± 0.0118 | best inhibitory effect on lung cancer | 7.249 ± 0.6689 | best inhibitory effect on ovarian cancer
5 | COc1cc(/C(=C\c2cc(O)c(OC)c(F)c2)C(=O)O)cc(OC)c1OC [Compound 8, (E)-3-(5-fluoro-3-hydroxy-4-methoxyphenyl)-2-(3,4,5-trimethoxyphenyl)acrylic acid] | 4.22 ± 0.75 | 64.1 |  | 5.21 ± 0.47 | 49.47^## % |  |  | 0.0735 ± 0.0127 |  | 6.543 ± 0.7256 | 
6 | COc1ccc(/C=C(/C(=O)O)c2cc(OC)c(OC)c(OC)c2)c(F)c1O [Compound 9, (E)-3-(2-fluoro-3-hydroxy-4-methoxyphenyl)-2-(3,4,5-trimethoxyphenyl)acrylic acid] |  |  |  | 4.37 ± 0.62 | 57.61^# % |  |  | 0.0753 ± 0.0123 |  | 6.258 ± 0.6573 | 
7 | COc1cc(/C=C(/C(=O)[O-])c2cc(OC)c(OC)c(OC)c2)cc(OC)c1F.[K+] [Compound 10] |  |  |  | 4.26 ± 0.73 | 58.68^# % |  | 5.847 ± 0.6349 | 0.0623 ± 0.0114 |  |  | 
8 | COc1cc(/C(=C\c2cc(O)c(OC)c(O)c2)C(=O)O)cc(OC)c1OC [Compound 11, (E)-3-(3,5-dihydroxy-4-methoxyphenyl)-2-(3,4,5-trimethoxyphenyl)acrylic acid] | 4.07 ± 0.51 | 65.4 |  |  |  |  |  | 0.0653 ± 0.0122 |  | 5.735 ± 0.5952 | 
